Key:
DLD1 BRCA2^-/- = test: Cell activity assay (CellTiterGlo), BRCA2 gene knockout DLD1 cancer cells; format: cell-based; details: Homo sapiens, DLD-1, 144 h, read-out: IC50(nM) DLD1 BRCA2^-/-
Protocol: (§1) • (1) Compound Treatment • a) Preparation of Stock Solutions of Compounds Test compounds were dissolved in DMSO at a concentration of 10 mM or 5 mM, and Olaparib was dissolved in DMSO at a concentration of 10 mM. • b) Compound Storage All compounds dissolved in DMSO were stored in a desiccator at room temperature for short-term storage and transferred to a -20°C refrigerator for long-term storage. • c) Preparation of Working Concentrations of Compounds
(§2) Test compounds were serially diluted in DMSO at a 3-fold gradient to prepare 10 concentration gradients, starting from 10 µM.
(§3) Olaparib was serially diluted in DMSO at a 3-fold gradient to prepare 10 concentration gradients, starting from 10 µM.
(§4) The 384-well plate loaded with the compounds was centrifuged at 1000 rpm for 1 minute.
(§5) • a) Cells were added to the culture medium and incubated in a cell culture incubator at 37°C with 5% CO2. • b) 40 µL of BRCA1- or BRCA2-deficient cells were added to a 384-well plate and incubated overnight at 37°C with 5% CO2. • c) The test compounds were prepared at different concentration gradients on the master plate, and 80 nL of the test compounds and Olaparib were taken from the master plate and added to the 384-well plate containing cells, and incubated at 37°C with 5% CO2 for 6 days. • d) CellTiterGlo (30 µL per well) was added to the 384-well plate, and after incubation at room temperature in the dark for 30 minutes, measurement was performed using an Envision plate reader.
(§6) • a) GraphPad Prism software was used to calculate the ICso and plot the activity curves as a function of concentration. • b) The inhibition of cell activity by the compounds was calculated using the following formula: % Inhibition = [1−(Cmpd−Blank)/(DMSO−Blank)]*100 [formula]

UWB1.289 Cells = test: Cell activity assay (CellTiterGlo), BRCA1 gene-deficient ovarian cancer cells UWB1.289; format: cell-based; details: UWB1289, 144 h, BRCA1 gene-deficient ovarian cancer cells UWB1.289, 6 days incubation
Protocol: as §1, §2, §3, §4, §5, §6

[1] = In-vivo pharmacokinetic study in mice (bioavailability testing); details: mouse, plasma; oral (PO) and intravenous (IV) routes, female Balb/c nude mice
Protocol: Test compounds were administered to mice via oral (PO) and intravenous (IV) routes. The test compounds were dissolved at room temperature. The mice used in the study were Balb/c nude mice, all female, aged 6-8 weeks, with a body weight of 20-30 grams. Before administration, the mice had free access to food and water. Blood samples (approximately 0.03 mL per sample) were collected from the vein at appropriate time points. The samples were placed in tubes containing an anticoagulant and stored on ice until centrifugation. Blood samples were collected at 0.083, 0.25, 0.5, 1, 2, 4, 8, and 24 hours after intravenous administration, and at 0.25, 0.5, 1, 2, 4, 8, and 24 hours after oral administration. The blood samples were centrifuged at approximately 4000 rpm at 2-8 °C for 5 minutes. Plasma samples were then collected and stored frozen at approximately -80 °C until analysis. The LC-MS/MS system was used for bioanalytical work. Table 4. Bioavailability Testing

hERG = hERG (Homo sapiens, UniProt Q12809); test: hERG cardiotoxicity assay (patch clamp, hERG stably expressed HEK 293 cell line); format: cell-based; details: hERG current, HEK 293 cells, 5 doses
Protocol: Assay Method: 1) The hERG stably expressed HEK 293 cell line (Cat# K1236) was purchased from Invitrogen. Cells were cultured in a medium consisting of 85% DMEM, 10% FBS, 0.1 mM NEAA, 25 mM HEPES, 100 U/mL penicillin-streptomycin, 5 µg/mL Blasticidin, and 400 µg/mL Geneticin. Cells were passaged approximately three times a week using TrypLE™ Express and maintained at ~40% to ~80% confluency. Before assay, cells were placed on coverslips with 5×10^5 cells per 6-cm cell culture dish and induced with 1 µg/mL doxycycline for 48 hours. 2) The coverslip was removed from the cell culture dish and placed on the microscope stage. A suitable cell was located using a 10× objective. The tip of the electrode was located under the microscope using the 10× objective, and the focus was adjusted to the plane of the cell. Once the tip was in focus, the coarse control of the manipulator was used to advance the electrode downward toward the cell while moving the objective to keep the tip in focus. When directly above the cell, the objective was switched to 40× objective, and the fine control of the manipulator was used to approach the cell surface in small steps. 3) A blank control was first performed to establish a baseline. […] In the presence of the test compounds, the hERG current was recorded for approximately 5 minutes to reach a steady state, followed by capturing 5 scans. For dose-response testing, 5 doses of the test compounds were cumulatively applied to the cells from low to high concentrations. The positive control, dofetilide at a concentration of 150 nM, was applied to each cell, and the hERG current was measured in the test compounds at the highest concentration as a negative control to normalize the percentage of inhibition. To ensure good performance of the cultured cells and operations, cells from the same batch were also tested with 5 doses of dofetilide. Table 5. hERG Toxicity Assay Results

[2] = Toxicity assay in mice, repeated dosing at 50 mg/kg, body weight; format: in vivo; details: 50 mg/kg PO once every 3 days; for overall condition / clinical symptoms: 21 days; for overall condition / clinical symptoms / effect on mouse body weight: female mice; for effect on mouse body weight: after 21 days of repeated administration
Protocol: Test compounds were administered to mice via the oral (PO) route. The test compounds were dissolved at room temperature. The mice used in the study were all female, and aged 6-8 weeks. Before administration, the mice had free access to food and water. Vehicle control: 50 mM NaH2PO4, pH 4.0, administered once every 3 days. CX-5461 and Compound H-31 were administered once every 3 days at a dose of 50 mg/kg. If the body weight of the mice decreased by more than 15%, administration was suspended until the body weight recovered, after which administration was resumed.

[3] = Toxicity assay in mice, repeated dosing at 55 mg/kg, body weight; format: in vivo; details: 55 mg/kg PO once every 3 days, 4 repeated administrations, female Balb/c mice
Protocol: Test compounds were administered to mice via the oral (PO) route. The test compounds were dissolved at room temperature. The mice (Balb/c) used in the study were all female, and aged 6-8 weeks. Before administration, the mice had free access to food and water.
Vehicle control: 50 mM NaH2PO4, pH 4.0. CX-5461 and the H series compounds were administered once every 3 days at a dose of 55 mg/kg, with four doses administered in total.

MDA-MB-436 cancer cells = test: Inhibition of human-derived cancer in mouse model (MDA-MB-436 subcutaneous tumors); format: in vivo, NOD SCID mice; details: MDA-MB-436 model, oral
Protocol: The anti-cancer efficacy of the compounds of the present application was evaluated in NOD SCID mice. Female mice aged 6-8 weeks were subcutaneously inoculated with MDA-MB-436 cancer cells to form tumors. When the tumors reached a size of 100-150 mm^3, the mice were randomly divided into groups, with 6 mice in each group. The administration route was oral administration. Olaparib was administered once a day at a dose of 100 mg/kg for a total of 28 days. The vehicle control group and Compound H-31 were administered once every 3 days at a dose of 25 mg/kg.

[4] = system: human herpesvirus HCMV-AD169; test: Antiviral cell-protective activity, GFP-labeled HCMV-AD169 in MRC5 cells; format: cell-based; details: for EC50: Human betaherpesvirus 5, 168 h, HCMV-AD169 GFP fluorescence, 7 days, read-out: Virus inhibition EC50; for SI (CC50/EC50): therapeutic index, HCMV-AD169
Protocol: MRC5 cells were seeded in microplates at a specific density and cultured overnight in an incubator at 37 °C with 5% CO2. Serially diluted compounds and GFP-labeled human herpesvirus HCMV-AD169 were added to the microplates. A cell control group (cells without compound treatment or viral infection) and a virus control group (cells infected with the virus but without compound treatment) were set up. The test compounds and control compounds were tested at 8 concentrations, with 3-fold serial dilutions and triplicate wells for each concentration. Meanwhile, the cytotoxicity of the test compounds and control compounds on cells was determined. The cells were cultured in an incubator at 37 °C with 5% CO2 for 7 days. Acumen Cellista was used to detect the GFP fluorescence intensity inside the cells in each well. Cell viability detection reagents CCK-8 or Cell Titer Glo were used to measure cell viability, and the original data were used for calculating the cytotoxicity of the test compounds. GraphPad Prism software was applied to analyze the dose-response curves of the test compounds, calculate the virus inhibition EC50 and cytotoxicity CC50 values, and further calculate the therapeutic index (SI), using the formula SI = CC50/EC50, which was used to evaluate the therapeutic potential of the drug; a higher SI value indicates stronger efficacy of the drug against viruses.

hERG, sequence (Q12809 whole entry): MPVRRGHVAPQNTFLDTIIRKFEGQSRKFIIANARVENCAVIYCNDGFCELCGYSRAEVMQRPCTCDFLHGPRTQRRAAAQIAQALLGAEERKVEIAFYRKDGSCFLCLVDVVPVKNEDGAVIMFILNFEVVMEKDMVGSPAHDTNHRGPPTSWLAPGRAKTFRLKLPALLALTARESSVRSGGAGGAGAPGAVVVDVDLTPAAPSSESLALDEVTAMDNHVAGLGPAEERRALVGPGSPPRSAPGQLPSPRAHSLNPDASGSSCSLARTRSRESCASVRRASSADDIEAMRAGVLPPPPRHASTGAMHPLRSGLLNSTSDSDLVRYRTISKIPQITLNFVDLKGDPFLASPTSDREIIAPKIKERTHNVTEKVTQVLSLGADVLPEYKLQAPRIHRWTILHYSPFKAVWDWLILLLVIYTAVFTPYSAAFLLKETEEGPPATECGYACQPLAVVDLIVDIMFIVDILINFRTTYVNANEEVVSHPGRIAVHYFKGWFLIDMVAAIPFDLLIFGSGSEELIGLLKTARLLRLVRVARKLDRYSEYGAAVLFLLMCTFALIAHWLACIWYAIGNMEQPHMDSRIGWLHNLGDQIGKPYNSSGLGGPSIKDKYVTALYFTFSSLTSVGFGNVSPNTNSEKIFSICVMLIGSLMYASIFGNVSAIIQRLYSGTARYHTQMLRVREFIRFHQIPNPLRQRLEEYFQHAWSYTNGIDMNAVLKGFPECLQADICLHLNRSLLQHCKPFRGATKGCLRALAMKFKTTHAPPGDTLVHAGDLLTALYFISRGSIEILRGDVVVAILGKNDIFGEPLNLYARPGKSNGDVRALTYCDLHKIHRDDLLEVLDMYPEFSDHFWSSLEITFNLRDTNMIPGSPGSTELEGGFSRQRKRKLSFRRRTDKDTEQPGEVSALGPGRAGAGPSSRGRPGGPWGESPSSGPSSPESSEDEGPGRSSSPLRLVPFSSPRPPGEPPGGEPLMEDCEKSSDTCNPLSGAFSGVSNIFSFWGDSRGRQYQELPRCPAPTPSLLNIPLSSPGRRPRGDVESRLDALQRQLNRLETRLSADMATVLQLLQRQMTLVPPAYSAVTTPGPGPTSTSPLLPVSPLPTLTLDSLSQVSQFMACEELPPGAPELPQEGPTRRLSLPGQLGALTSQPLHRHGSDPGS

Compound | IC50 (DLD1 BRCA2^-/-) [nM] | bioavailability [1] [%] | also measured
Cc1cnc(CNC(=O)c2c(=O)c3ccc(N4CCCN(C)CC4)nc3n3c2sc2ccccc23)cn1 [CX-5461] | 43.9 | 33.8 | IC50 (UWB1.289 Cells): 91.6 nM; IC50 (hERG): 5100 nM; overall condition / clinical symptoms [2]: poor overall condition, sluggish movement, and pallor in the tails and toes due to blood loss; effect on mouse body weight [2]: significantly reduced the body weight of the mice; average body weight loss ([2]; administration halted for the entire group): exceeded 10%
CN1CCCN(c2ccc3c(=O)c(C(=O)NCc4ncc(F)cn4)c4sc5ccccc5n4c3n2)CC1 [Compound H-1] | 37.7 | 60.7 | 
CN1CCCN(c2ccc3c(=O)c(C(=O)NCc4ncc(Cl)cn4)c4sc5ccccc5n4c3n2)CC1 [Compound H-2] | 33.8 | 47.2 | 
CN1CCCN(c2ccc3c(=O)c(C(=O)NCc4ncc(C(F)(F)F)cn4)c4sc5ccccc5n4c3n2)CC1 [Compound H-4] | 36 |  | deaths [3]: no deaths observed
[2H]C1([2H])CN(c2ccc3c(=O)c(C(=O)NCc4ncc(F)cn4)c4sc5ccccc5n4c3n2)C([2H])([2H])C([2H])([2H])N(C)C1([2H])[2H] [Compound H-6] | 23.8 |  | 
[2H]C([2H])([2H])N1C([2H])([2H])C([2H])([2H])CN(c2ccc3c(=O)c(C(=O)NCc4ncccn4)c4sc5ccccc5n4c3n2)C([2H])([2H])C1([2H])[2H] [Compound H-7] | 16.2 |  | 
[2H]C([2H])([2H])N1C([2H])([2H])C([2H])([2H])CN(c2ccc3c(=O)c(C(=O)NCc4ncc(F)cn4)c4sc5ccccc5n4c3n2)C([2H])([2H])C1([2H])[2H] [Compound H-8] | 15.9 |  | 
CN1CCCN(c2ccc3c(=O)c(C(=O)NCc4ncc(C#N)cn4)c4sc5ccccc5n4c3n2)CC1 [Compound H-11] | 16.2 |  | 
CN1CCCN(c2ccc3c(=O)c(C(=O)NCc4nccc(C#N)n4)c4sc5ccccc5n4c3n2)CC1 [Compound H-12] | 13.7 | 49.1 | 
CNC(=O)c1cnc(CNC(=O)c2c(=O)c3ccc(N4CCCN(C)CC4)nc3n3c2sc2ccccc23)nc1 [Compound H-13] |  |  | IC50 (hERG): > 30000 nM
CN1CCCN(c2ccc3c(=O)c(C(=O)NCc4ncc(C(=O)N(C)C)cn4)c4sc5ccccc5n4c3n2)CC1 [Compound H-15] |  |  | IC50 (hERG): > 30000 nM
COc1cnc(CNC(=O)c2c(=O)c3ccc(N4CCCN(C)CC4)nc3n3c2sc2ccccc23)nc1 [Compound H-16] | 27.5 |  | 
COc1ccnc(CNC(=O)c2c(=O)c3ccc(N4CCCN(C)CC4)nc3n3c2sc2ccccc23)n1 [Compound H-17] |  | 74.6 | deaths [3]: no deaths observed
CSc1cnc(CNC(=O)c2c(=O)c3ccc(N4CCCN(C)CC4)nc3n3c2sc2ccccc23)nc1 [Compound H-18] |  |  | IC50 (hERG): 10700 nM
CNc1cnc(CNC(=O)c2c(=O)c3ccc(N4CCCN(C)CC4)nc3n3c2sc2ccccc23)nc1 [Compound H-19] | 30.3 |  | 
CCc1cnc(CNC(=O)c2c(=O)c3ccc(N4CCCN(C)CC4)nc3n3c2sc2ccccc23)nc1 [Compound H-21] |  | 66.8 | 
CCc1ccnc(CNC(=O)c2c(=O)c3ccc(N4CCCN(C)CC4)nc3n3c2sc2ccccc23)n1 [Compound H-22] | 36.7 | 40.6 | 
CN1CCCN(c2ccc3c(=O)c(C(=O)NCc4ncc(C5CC5)cn4)c4sc5ccccc5n4c3n2)CC1 [Compound H-27] |  | 59.2 | 
CN1CCCN(c2ccc3c(=O)c(C(=O)NCc4nccc(C5CC5)n4)c4sc5ccccc5n4c3n2)CC1 [Compound H-28] |  | 41.6 | 
[2H]C([2H])([2H])N1CCCN(c2ccc3c(=O)c(C(=O)NCc4ncccn4)c4sc5ccccc5n4c3n2)CC1 [Compound H-31] | 12.8 | 43.1 | IC50 (UWB1.289 Cells): 28.8 nM; overall condition / clinical symptoms [2]: no abnormal clinical symptoms were observed; effect on mouse body weight [2]: weight trends similar to the control group; cancer inhibition rate (MDA-MB-436 cancer cells; 25 mg/kg once every 3 days): 82.2%; EC50 [4]: 30 nM; SI (CC50/EC50) [4]: >101.7
Nc1nc(O)c2ncn(COC(CO)CO)c2n1 [Ganciclovir, reference compound] |  |  | EC50 [4]: 1600 nM; SI (CC50/EC50) [4]: >60.7
O=C(c1cc(Cc2n[nH]c(=O)c3ccccc23)ccc1F)N1CCN(C(=O)C2CC2)CC1 [Olaparib, reference compound] | 490 |  | IC50 (UWB1.289 Cells): 716 nM; cancer inhibition rate (MDA-MB-436 cancer cells; 100 mg/kg once a day for 28 days): 63.4%
